From patent publication US20250172542A1, “METHOD FOR INDUCING ARTIFICIAL AGEING IN A STEM CELL AND USES OF SAID CELL” (Clock Bio Limited, priority 2022, published 2025)

Columns and labels:
Bob NGN2 and Bob N2P iNs = test: RT-PCR of neuronal markers in iNeurons treated with or without cumate; type: cell-based, human; conditions: RT-PCR relative to PBGD1
Method: (§1) NGN2 and NGN2-Progerin iPSCs were dissociated into single cells with Accutase and plated onto PDL/Geltrex coated dishes at a density of 30K cells per cm^2. Forward programming was initiated 24 hours after the split. The induction was performed in DMEM/F-12 supplemented with Glutamax (100×), Non-Essential Amino Acids (100×), 50 μM 2-Mercaptoethanol (Gibco), 1% Penicillin/Streptomycin, 1 μg/mL Dox. After 2 days of induction, the medium was switched to Neurobasal-medium supplemented with Glutamax (100×), B27 (50×), 10 ng/mL BDNF (Peprotech), 10 ng/mL NT3 (R&D Systems), 1% Penicillin/Streptomycin, and 1 μg/mL Dox. In order to age NGN2-Progerin iNeurons (iNs), at D7 post induction, cumate was added to the medium for 7 days. Pre-aged iNs were induced as described above from 5 days aged NGN-Progerin iPSCs, no additional cumate was added during the induction process.
cDNA synthesis was performed with the Maxima First Strand cDNA Synthesis Kit (Thermo Fisher Scientific). PowerUp SYBR Green Master Mix (Thermo Fisher Scientific) was used for RT-PCR. Samples were run on the QuantStudio 6 Flex Real-Timer PCR System machine (Applied Biosystems). All samples were analysed in technical duplicates and normalised to the house-keeping gene Porphobilinogen Deaminase 1 (PBGD1). Results were analysed with the ΔΔCt method. […]

[1] = system: GFP-Progerin expression under the cumate switch (CymR/CuO); test: Cumate dose response assay (GFP-Progerin expression in iNeurons); type: cell-based, human; conditions: neurons induced with doxycycline and cumate
Method: as §1
In order to allow for a separate control of NGN2 and progerin expression, the OPTi-OX technology was used and a dual system designed which is based on both the TetOn (Baron and Bujard (2000)) and the cumate switch (Mullick et al. (2006); Sato et al. (2020); and Seo and Schmidt-Dannert (2019)) inducible systems. This new system was referred to as (Opti-OX)^2. The cumate repressor (CymR) was first cloned into the original ROSA26 targeting vector, linked by a 2A sequence to rtTA (FIGS. 7A-F). […]

Compound: CC(C)c1ccc(C(=O)O)cc1 [cumate]
- effect of cumate itself on gene expression (MAP2 and synapsin-1 downregulation) (Bob NGN2 and Bob N2P iNs): not responsible for the changes seen in gene expression
- GFP expression as a function of cumate dose [1]: titrated by adjusting the dose
